Measurements reported in patent US20050106226A1, “Pretreatment method and system for enhancing transdermal drug delivery” (priority 2003, published 2005).

Key:
[1] = Passive transdermal delivery of PPS from hydrogel gel patch after microprojection array pretreatment, determined by urinary excretion of tritium; format: in vivo, hairless guinea pig; conditions: passive diffusion
Experimental: In this experiment, PPS was delivered by passive diffusion through skin pathways created by a pretreatment device having a microprojection array. The microprojection array comprised a stainless steel sheet having a thickness of 0.025 mm, trapezoidally shaped microprojections bent at an angle of approximately 90° to the plane of the sheet and a microprojection density of 241 microprojections/cm^2. […] The gel patch comprised a foam, double adhesive ring (diameter 3.8 cm, thickness 0.16 cm) having 0.35 mL of a hydrogel formulation and a skin contact area of 2 cm^2. The hydrogel formulation included tritiated PPS at 50 mg/mL in a 2% hydroxyethyl cellulose ([…], HERCULES Int. Lim. Netherlands, determined molecular weight: Mw 1890000, Mn 1050000) hydrogel. […] The amount of the biologically active agent (or drug) that penetrated the skin during selected time intervals was determined by measuring urinary excretion of tritium (previous studies had shown that in HGP's 32% of 3H-PPS injected intravenously is excreted in urine). […] After 24 h delivery, more than 6 mg of PPS had been administered systemically.

[2] = injected intravenously, HGP; cited from earlier work

- amount of PPS administered systemically ([1]; after 24 h delivery, tritiated PPS 50 mg/mL in 2% HEC hydrogel, 0.35 mL, 2 cm^2): more than 6 mg
- flux of PPS through the skin ([1]; FIG. 19): time dependant flux
Substance: pentosan polysulfate [PPS]
- fraction of 3H-PPS excreted in urine [2]: 32%
